# From patent publication EP4786487A1, “PEPTIDE” (Peptidream Inc, priority 2023, dated 2025)
# Starred links: 1 amine or outer side, 2 acyl side, 3 side chain; linkers in the order of their positions; H or OH if unused. Positions of bridges follow the written chain, without caps; N, C: chain ends. Non-standard residues stand in square brackets, D forms with d. Residues, ends and D or L forms follow the SMILES beside them. Trp(6-OH,1-(4-HO2C-Ph)) = N[C@@H](Cc1cn(-c2ccc(C(=O)O)cc2)c2cc(O)ccc12)C(=O)O; Phe(3-OCH2COOH) = N[C@@H](Cc1cccc(OCC(=O)O)c1)C(=O)O; N(CH2CH2CO)Gly = O=C(CN(CCC(=O)[*:3])[*:1])[*:2]; Phe(4-COOH) = N[C@@H](Cc1ccc(C(=O)O)cc1)C(=O)O; X1 = CCCCCCC[C@H](N[*:1])C(=O)[*:2]; NMeF = CN[C@@H](Cc1ccccc1)C(=O)O; NMeDap = CN[C@@H](CN)C(=O)O; NMeA = CN[C@@H](C)C(=O)O
# Key:
# Assay type in all cases: cell-based
# Myostatin = molecular target: T1, Myostatin (Homo sapiens, UniProt O14793); assay: Reporter gene assay for myostatin signaling in HepG2 cell line, Evaluation Procedure (1), myostatin inhibition; settings: HepG2, luciferase reporter, Evaluation Procedure (1), Method D
# T1 construct: active myostatin (also called mature myostatin) is a homodimer consisting of two C-terminal growth factor domains; purchased R&D systems 788-G8/CF
# T1 sequence (O14793 267-375): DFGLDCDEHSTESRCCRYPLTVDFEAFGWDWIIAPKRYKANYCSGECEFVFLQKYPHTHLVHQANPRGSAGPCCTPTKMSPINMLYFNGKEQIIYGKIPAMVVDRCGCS
# In short: (§1)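 IC50 derived from One-Glo luciferase luminescence after 20–24 h at 37 °C. Peptides titrated 4-fold at 0.006–100 nmol/L against myostatin or 0.12–2000 nmol/L against GDF-11 in HepG2 cells carrying a transfected CAGA12-luciferase reporter, kept in 0.1% BSA EMEM.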
# GDF-11 [1] = molecular target: T2, GDF-11 (Homo sapiens, UniProt O95390); assay: Reporter gene assay for myostatin signaling in HepG2 cell line, Evaluation Procedure (1), GDF-11 inhibition; settings: HepG2, luciferase reporter, Evaluation Procedure (1), Method D; read-out: IC50 (Luciferase) GDP-11 HepG2
# T2 construct: purchased R&D systems 1958-GD-G8/CF
# T2 sequence (O95390 299-407): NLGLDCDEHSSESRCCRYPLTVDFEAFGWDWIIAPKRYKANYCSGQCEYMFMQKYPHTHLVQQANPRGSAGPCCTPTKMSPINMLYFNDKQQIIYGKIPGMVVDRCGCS
# In short: as §1
# GDF-11 [2] = assay: as above; settings: GDF-11 IC50 relative to myostatin IC50, HepG2
# In short: as §1
compound,measurement,setting,value
"CCCCCCC[C@@H]1NC(=O)[C@H](Cc2ccccc2)N(C)C(=O)[C@H](CCCNC(=N)N)NC(=O)[C@H](Cc2ccc(C(=O)O)cc2)NC(=O)[C@H](Cc2cccc(OCC(=O)O)c2)NC(=O)[C@H]2CCCN2C(=O)[C@H]([C@@H](C)CC)NC(=O)[C@H](Cc2ccccc2)N(C)C(=O)[C@H](Cc2ccc(O)cc2)NC(=O)[C@H](Cc2cn(-c3ccc(C(=O)O)cc3)c3cc(O)ccc23)NC(=O)[C@H](C)NC(=O)CN2CCC(=O)NC[C@@H](C(=O)N(C)[C@@H](Cc3ccccc3)C(=O)N[C@H](C)C(=O)N(C)[C@@H](C)C2=O)N(C)C1=O [Myostatin_99_v489] (cyclo(A[Trp(6-OH,1-(4-HO2C-Ph))]Y[NMeF]I[dP][Phe(3-OCH2COOH)][Phe(4-COOH)]R[NMeF][X1][NMeDap][NMeF][dA][NMeA][N(CH2CH2CO)Gly]); lactam 12-16)",IC50,Myostatin,0.12 nM
same,IC50,GDF-11 [1],45.4 nM
same,Selectivity,GDF-11 [2],365.6
